These results are taken from patent US9987276B2 (Celgene CAR LLC, priority 2008, dated 2018).

Test [1] has as its target T1, BTK (Homo sapiens (Human), UniProt Q06187). Put plainly: Mass spectrometry for BTK (intact protein). The settings on record: 1 hr, 10× fold excess of compound. Type of test: binding. The protocol:
Intact BTK was incubated for 1 hr at a 10× fold excess of I-7 to protein. Aliquots (2 μl) of the samples were diluted with 10 μl of 0.1% TFA prior to micro C4 ZipTipping directly onto the MALDI target using Sinapinic acid as the desorption matrix (10 mg/ml in 0.1% TFA:Acetonitrile 20:80).

The target of a further test is EGFR-WT (Homo sapiens (Human), UniProt P00533). Put plainly: Omnia assay for potency assessment against EGFR (WT).
Sequence of EGFR-WT (P00533 668-1210): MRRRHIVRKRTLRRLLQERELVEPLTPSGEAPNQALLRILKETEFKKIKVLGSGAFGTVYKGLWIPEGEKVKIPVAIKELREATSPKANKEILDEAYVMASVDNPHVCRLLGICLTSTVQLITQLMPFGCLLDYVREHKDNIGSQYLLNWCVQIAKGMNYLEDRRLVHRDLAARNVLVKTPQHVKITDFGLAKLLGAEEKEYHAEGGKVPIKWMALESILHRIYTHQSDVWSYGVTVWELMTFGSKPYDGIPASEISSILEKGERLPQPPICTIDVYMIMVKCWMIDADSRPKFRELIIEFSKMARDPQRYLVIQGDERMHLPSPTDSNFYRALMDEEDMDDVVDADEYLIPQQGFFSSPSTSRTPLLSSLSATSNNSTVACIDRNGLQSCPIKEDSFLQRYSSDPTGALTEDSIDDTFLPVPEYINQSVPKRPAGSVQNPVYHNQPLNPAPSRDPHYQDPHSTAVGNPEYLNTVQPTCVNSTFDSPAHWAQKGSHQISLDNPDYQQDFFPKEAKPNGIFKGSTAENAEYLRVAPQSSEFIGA
Test [2] has as its target T1, BTK. The test can be described thus: BTK Ramos cellular assay (PLCγ2 phosphorylation). Type of test: cell-based. The settings on record: Ramos cells, 1 hour compound, anti-IgM stimulation, p-PLCγ2; read-out: BTK Inhibition (IC50), BTK Ramos cellular inhibition.
In test [3] the target is T1, BTK. The test can be described thus: Omnia assay for potency assessment against BTK. Type of test: biochemical. The settings on record: [BTK]=5 nM, Omnia assay; read-out: BTK Inhibition (IC50). The protocol:
The modified BTK-optimized reagent conditions for the above protocol are:
[BTK]=5 nM, [ATP]=[…], [Y5-Sox]=[…] (ATP KMapp˜[…]).

Another test deals with ITK (Homo sapiens (Human), UniProt Q08881). The test can be described thus: Omnia assay for potency assessment against active forms of ITK kinase. The settings on record: [ITK]=10 nM, [ATP]=25, [Y6-Sox]=10 μM; read-out: ITK Inhibition. Type of test: biochemical. How it is done:
[ITK]=10 nM, [ATP]=25 [Y6-Sox]=10 μM (ATP KMapp=33 μM).

For another test, the target named is EGFR-T790M/L858R (Homo sapiens (Human), UniProt P00533, L858R/T790M). Put plainly: Omnia assay for potency assessment against EGFR (T790M/L858R). The following applies: read-out: EGFR (T790M/L858R); EGFR mutant T790M/L858R.
Sequence of EGFR-T790M/L858R (P00533 25-1210 T790M/L858R): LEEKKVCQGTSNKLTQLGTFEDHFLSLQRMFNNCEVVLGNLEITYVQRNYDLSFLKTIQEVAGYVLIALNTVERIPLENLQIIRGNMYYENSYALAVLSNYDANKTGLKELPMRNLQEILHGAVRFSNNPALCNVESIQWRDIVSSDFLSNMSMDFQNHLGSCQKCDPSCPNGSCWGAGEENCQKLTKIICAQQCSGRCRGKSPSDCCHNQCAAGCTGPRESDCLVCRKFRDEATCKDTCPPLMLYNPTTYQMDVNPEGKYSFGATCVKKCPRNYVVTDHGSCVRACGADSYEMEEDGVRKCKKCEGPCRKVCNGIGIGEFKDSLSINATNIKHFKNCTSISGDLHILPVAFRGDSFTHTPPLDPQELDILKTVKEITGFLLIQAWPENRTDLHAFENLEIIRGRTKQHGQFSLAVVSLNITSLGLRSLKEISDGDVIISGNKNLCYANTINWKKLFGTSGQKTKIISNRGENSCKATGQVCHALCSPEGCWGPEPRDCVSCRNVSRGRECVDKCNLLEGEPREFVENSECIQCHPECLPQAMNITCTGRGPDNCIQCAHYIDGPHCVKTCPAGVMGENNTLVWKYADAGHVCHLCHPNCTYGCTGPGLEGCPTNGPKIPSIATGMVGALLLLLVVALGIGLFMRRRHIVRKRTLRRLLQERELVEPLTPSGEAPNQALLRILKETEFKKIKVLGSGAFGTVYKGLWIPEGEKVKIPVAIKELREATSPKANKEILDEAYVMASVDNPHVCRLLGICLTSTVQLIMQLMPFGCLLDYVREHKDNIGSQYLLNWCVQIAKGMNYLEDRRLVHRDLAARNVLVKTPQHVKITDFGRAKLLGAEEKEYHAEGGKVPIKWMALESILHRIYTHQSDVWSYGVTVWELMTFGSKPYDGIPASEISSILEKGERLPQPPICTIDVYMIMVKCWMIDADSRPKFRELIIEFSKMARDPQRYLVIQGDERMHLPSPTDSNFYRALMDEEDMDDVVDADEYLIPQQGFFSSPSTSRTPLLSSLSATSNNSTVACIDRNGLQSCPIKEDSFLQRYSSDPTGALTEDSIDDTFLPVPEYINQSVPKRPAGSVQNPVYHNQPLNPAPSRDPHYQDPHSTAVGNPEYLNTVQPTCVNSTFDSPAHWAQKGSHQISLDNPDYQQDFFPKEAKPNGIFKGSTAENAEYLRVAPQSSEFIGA
Test [4] concerns the target T1, BTK. The test can be described thus: Washout experiment with Ramos cells. Type of test: cell-based. The settings on record: 100 nM compound for 1 hour, then washout. The protocol:
Ramos cells were serum starved for one hour in RPMI media+1% glutamine at 37° C. After starvation, Ramos cells were treated with 100 nM compound diluted in serum free RPMI media for 1 hour. After compound treatment, the media was removed and cells were washed with compound-free media. Subsequently, Ramos cells were washed every 2 hours and resuspended in fresh compound-free media. Cells were collected at specified timepoints, treated with 1 ug anti-human IgM (Southern Biotech cat #2022-01) for 10 minutes on ice to induce BCR signaling and then washed in PBS. Ramos cells were then lysed in Cell Extraction Buffer (Invitrogen FNN0011) supplemented with Roche complete protease inhibitor tablets (Roche 11697498001) and phosphatase inhibitors (Roche 04 906 837 001) and 18 ug total protein lysate was loaded in each lane. Inhibition of BTK kinase activity was assayed by measuring its substrate (PLCγ2) phosphorylation by western blot with phospho-specific antibodies from Cell Signaling Technologies cat #3871. The results of this experiment with compounds I-2, I-4 and I-7 are depicted in FIGS. 1, 2 and 3.

The target in a further test is BMX (Homo sapiens (Human), UniProt P51813). The test can be described thus: Omnia assay for potency assessment against active forms of BMX kinase. The settings on record: [BMX]=2.5 nM, [ATP]=100 μM, [Y5-Sox]=7.5 μM; read-out: BMX Inhibition. Type of test: biochemical. How it is done: Briefly, 10× stocks of EGFR-WT (PV3872) from Invitrogen and EGFR-T790M/L858R (40350) from BPS Bioscience, San Diego, Calif., 1.13×ATP (AS001A) and appropriate Tyr-Sox conjugated peptide substrates (KCZ1001) were prepared in 1× kinase reaction buffer consisting of 20 mM Tris, pH 7.5, 5 mM MgCl2, 1 mM EGTA, 5 mM β-glycerophosphate, 5% glycerol (10× stock, KB002A) and 0.2 mM DTT (DS001A).
Sequence of BMX (P51813 whole entry): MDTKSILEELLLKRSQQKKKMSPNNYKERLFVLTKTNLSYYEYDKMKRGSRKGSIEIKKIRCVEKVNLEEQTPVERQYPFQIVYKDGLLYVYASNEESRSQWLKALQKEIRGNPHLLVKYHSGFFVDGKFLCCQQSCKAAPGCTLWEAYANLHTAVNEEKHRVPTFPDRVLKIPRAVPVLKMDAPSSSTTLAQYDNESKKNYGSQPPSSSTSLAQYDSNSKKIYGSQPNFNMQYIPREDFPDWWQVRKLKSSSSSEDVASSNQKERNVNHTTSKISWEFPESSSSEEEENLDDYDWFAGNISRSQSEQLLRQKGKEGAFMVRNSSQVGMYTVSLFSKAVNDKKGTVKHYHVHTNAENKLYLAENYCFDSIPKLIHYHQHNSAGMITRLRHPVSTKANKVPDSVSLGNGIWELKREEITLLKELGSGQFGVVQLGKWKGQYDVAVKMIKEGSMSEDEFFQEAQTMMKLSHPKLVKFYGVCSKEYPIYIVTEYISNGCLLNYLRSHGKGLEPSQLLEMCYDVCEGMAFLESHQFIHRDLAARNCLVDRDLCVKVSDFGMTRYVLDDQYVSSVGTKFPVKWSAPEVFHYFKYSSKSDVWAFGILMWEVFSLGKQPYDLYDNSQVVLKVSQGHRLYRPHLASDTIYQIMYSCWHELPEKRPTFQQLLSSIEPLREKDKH
This example describes continuous-read kinase assays to measure inherent potency of compound against active forms of BMX enzymes as described in Example 251 above except that the modified BMX-optimized reagent conditions are:
[BMX]=2.5 nM, [ATP]=100 μM, [Y5-Sox]=7.5 μM (ATP KMapp=107 μM).

The next test deals with EGFR T790M (Homo sapiens (Human), UniProt P00533, T790M). Put plainly: EGFR mutant T790M inhibition assay. Type of test: biochemical. The protocol:
The Omnia Assay Protocol for potency assessment against EGFR is performed as described in Example 251 above except that the EGFR-WT- and EGFR T790M/L858R-modified optimized reagent conditions are: […]

For another test, the system named is DOHH2. The test can be described thus: B cell lymphoma proliferation assay, DOHH2. Type of test: cell-based.
Setting [5] is: read-out: EGFR (wild type inhibition), EGFR wild type.

Molecules are shown by their SMILES. Read-outs that look alike come from different tables or passages of the source.

Sequence of ITK (Q08881 whole entry): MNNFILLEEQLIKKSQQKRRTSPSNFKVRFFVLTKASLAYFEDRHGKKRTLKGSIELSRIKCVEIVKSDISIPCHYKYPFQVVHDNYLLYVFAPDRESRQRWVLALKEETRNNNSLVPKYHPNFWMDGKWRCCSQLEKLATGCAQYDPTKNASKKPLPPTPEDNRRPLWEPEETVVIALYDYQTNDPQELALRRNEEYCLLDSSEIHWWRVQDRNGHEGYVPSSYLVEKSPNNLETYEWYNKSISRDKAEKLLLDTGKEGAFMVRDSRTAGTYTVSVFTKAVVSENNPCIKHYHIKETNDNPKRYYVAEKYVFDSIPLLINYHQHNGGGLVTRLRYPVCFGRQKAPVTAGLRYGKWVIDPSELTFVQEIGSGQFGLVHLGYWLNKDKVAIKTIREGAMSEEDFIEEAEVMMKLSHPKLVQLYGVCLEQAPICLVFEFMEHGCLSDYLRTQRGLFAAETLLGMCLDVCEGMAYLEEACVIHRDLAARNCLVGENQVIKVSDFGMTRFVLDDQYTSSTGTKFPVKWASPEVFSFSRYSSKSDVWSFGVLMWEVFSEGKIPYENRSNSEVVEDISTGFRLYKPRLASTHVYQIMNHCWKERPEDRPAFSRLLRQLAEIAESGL
T1 sequence (Q06187 whole entry): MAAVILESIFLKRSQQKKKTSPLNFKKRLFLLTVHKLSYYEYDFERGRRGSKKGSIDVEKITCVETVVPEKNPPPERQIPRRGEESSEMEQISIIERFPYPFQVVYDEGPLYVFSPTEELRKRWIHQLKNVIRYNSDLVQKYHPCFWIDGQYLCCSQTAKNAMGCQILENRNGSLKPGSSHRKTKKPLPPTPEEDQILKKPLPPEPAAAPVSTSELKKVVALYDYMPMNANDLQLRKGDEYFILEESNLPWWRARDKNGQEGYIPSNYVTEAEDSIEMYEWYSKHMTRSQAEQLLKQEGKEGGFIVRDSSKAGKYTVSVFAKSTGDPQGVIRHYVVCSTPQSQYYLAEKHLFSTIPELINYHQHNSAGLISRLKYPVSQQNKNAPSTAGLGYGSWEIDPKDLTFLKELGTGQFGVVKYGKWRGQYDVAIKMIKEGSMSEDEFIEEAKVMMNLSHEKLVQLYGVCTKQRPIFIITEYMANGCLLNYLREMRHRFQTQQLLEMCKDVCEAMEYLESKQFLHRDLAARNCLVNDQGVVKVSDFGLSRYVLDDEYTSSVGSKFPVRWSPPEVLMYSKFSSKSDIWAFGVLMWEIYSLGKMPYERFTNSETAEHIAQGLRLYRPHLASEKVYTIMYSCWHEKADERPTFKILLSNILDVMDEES
Sequence of EGFR T790M (P00533 25-1210 T790M): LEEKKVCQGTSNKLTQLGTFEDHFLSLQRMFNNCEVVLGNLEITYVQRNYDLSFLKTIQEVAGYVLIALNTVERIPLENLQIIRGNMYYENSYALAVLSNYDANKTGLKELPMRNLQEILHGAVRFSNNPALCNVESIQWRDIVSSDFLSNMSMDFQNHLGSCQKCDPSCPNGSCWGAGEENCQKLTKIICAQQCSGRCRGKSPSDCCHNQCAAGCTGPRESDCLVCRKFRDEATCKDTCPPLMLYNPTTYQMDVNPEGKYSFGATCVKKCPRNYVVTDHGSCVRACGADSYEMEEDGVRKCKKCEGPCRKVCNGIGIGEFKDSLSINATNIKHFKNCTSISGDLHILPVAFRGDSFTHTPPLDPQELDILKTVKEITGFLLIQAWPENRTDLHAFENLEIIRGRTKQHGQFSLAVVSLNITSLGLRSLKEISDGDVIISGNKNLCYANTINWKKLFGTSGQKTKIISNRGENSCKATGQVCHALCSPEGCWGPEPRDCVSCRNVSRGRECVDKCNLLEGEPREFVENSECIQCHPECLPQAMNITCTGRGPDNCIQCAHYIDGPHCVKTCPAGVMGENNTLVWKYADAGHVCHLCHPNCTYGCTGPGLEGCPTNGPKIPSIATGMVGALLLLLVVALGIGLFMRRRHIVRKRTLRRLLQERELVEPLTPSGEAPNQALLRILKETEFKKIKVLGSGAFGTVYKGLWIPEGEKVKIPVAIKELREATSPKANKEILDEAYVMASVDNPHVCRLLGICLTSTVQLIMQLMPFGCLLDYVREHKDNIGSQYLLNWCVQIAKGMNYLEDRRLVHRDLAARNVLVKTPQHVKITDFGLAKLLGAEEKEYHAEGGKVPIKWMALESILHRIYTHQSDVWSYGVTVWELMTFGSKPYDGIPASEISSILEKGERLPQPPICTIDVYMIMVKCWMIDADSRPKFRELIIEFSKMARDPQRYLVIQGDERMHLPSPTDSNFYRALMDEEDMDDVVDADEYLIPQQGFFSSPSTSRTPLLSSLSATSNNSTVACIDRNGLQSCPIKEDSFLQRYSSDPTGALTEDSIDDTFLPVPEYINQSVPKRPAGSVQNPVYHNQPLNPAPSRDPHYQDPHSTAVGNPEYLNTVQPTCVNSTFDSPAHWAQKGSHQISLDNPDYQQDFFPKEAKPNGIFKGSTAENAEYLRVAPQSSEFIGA

For the compound `C=CC(=O)N1CCC[C@@H](Nc2nc(Nc3cccc(OC)c3)ncc2F)C1` [Compound I-195, (R)-1-(3-(5-fluoro-2-(3-methoxyphenylamino)pyrimidin-4-ylamino)piperidin-1-yl)prop-2-en-1-one], the “covalent modification of BTK (mass spectrometry)” value (shortened to “covalent modification of BTK”) at BTK [1] is recorded as “completely modify”. For the same compound, the IC50 is 10 to 100 nM on EGFR-WT, 10 to 100 nM at BTK [2], below 10 nM on BTK [3] and 10 to 100 nM at ITK.
For `C=C(C#N)C(O)c1ccc(Nc2nc(Nc3ccccc3)ncc2F)cc1` (stereo not shown) [Compound I-161, 2-((4-(5-fluoro-2-(phenylamino)pyrimidin-4-ylamino)phenyl)(hydroxy)methyl)acrylonitrile], the “covalent modification of BTK” value at BTK [1] was “completely modify”. Also, the IC50 was 10 to 100 nM on EGFR-WT and below 10 nM on BTK [3].
Consider `C#CCOc1cccc(Nc2ncc(C)c(Nc3cccc(NC(=O)C=C)c3)n2)c1` [Compound I-35, N-(3-(5-methyl-2-(3-(prop-2-ynyloxy)phenylamino)pyrimidin-4-ylamino)phenyl) acrylamide], for which the IC50 on EGFR-T790M/L858R is below 10 nM; on EGFR-WT, 10 to 100 nM; at BTK [2], below 10 nM; on BTK [3], below 10 nM; on ITK it was 10 to 100 nM; at BMX, below 10 nM. Also, the “BTK Inhibition Type” value at BTK [4] is listed as “irreversible”.
With `CC(C)=CC(=O)c1cccc(Nc2nc(Nc3cccc(OCCN(C)C)c3)ncc2F)c1` [Compound I-207], on BTK [1], the “covalent modification of BTK” value is “completely modify”. Also, the IC50 against EGFR-WT was 100 to 1000 nM; on BTK [2] it was 100 to 1000 nM; on BTK [3], below 10 nM; at ITK, below 10 nM.
Take `C=CC(=O)N1CCOc2ccc(Nc3ncc(F)c(Nc4cccc(Cl)c4)n3)cc21` [Compound I-149, 1-(6-(4-(3-chlorophenylamino)-5-fluoropyrimidin-2-ylamino)-2H-benzo[b][1,4]oxazin-4(3H)-yl)prop-2-en-1-one]: at BTK [1], the “covalent modification of BTK” value is listed as “completely modify”. In addition, the IC50 at EGFR-WT (setting [5]) was 1000 to 10000 nM; on BTK [2], 10 to 100 nM; on BTK [3] it was below 10 nM; on ITK it was 1000 to 10000 nM.
In the case of `C=CC(=O)Nc1cccc(Nc2nc(Nc3cccc(OC(F)(F)F)c3)ncc2F)c1` [Compound I-244, N-(3-(5-fluoro-2-(3-(trifluoromethoxy)phenylamino)pyrimidin-4-ylamino)phenyl)acrylamide], at BTK [1], the “covalent modification of BTK” value was “completely modify”. The IC50 is 100 to 1000 nM at EGFR-WT; 10 to 100 nM at BTK [2]; below 10 nM on BTK [3]; 100 to 1000 nM on ITK; below 10 nM at BMX.
With `C=CC(=O)Nc1cccc(Nc2ncc(F)c(Nc3cccc(C)c3)n2)c1` [Compound I-3, N-(3-(5-fluoro-4-(m-tolylamino)pyrimidin-2-ylamino)phenyl) acrylamide], the IC50 was below 10 nM at EGFR-T790M/L858R; below 10 nM on EGFR T790M; below 10 nM on EGFR-WT (setting [5]); 10 to 100 nM at BTK [2]; below 10 nM on BTK [3].
In the case of `C=CC(=O)N(C)Cc1ccc(Nc2nc(Nc3ccccc3)ncc2C)cc1` [Compound I-219, N-methyl-N-(4-(5-methyl-2-(phenylamino)pyrimidin-4-ylamino)benzyl)acrylamide], the “covalent modification of BTK” value at BTK [1] is reported as “completely modify”. Besides, the IC50 was 10 to 100 nM against EGFR-WT, 10 to 100 nM at BTK [2], below 10 nM on BTK [3] and 10 to 100 nM on ITK.
`C=C(C#N)C(O)c1cccc(Nc2nc(Nc3ccc(OCCOC)cc3)ncc2F)c1` (stereo not shown) [Compound I-71, 2-((3-(5-fluoro-2-(4-(2-methoxyethoxy)phenylamino)pyrimidin-4-ylamino)phenyl)(hydroxy)methyl)acrylonitrile]: the “covalent modification of BTK” value at BTK [1] is recorded as “completely modify”. Moreover, the IC50 against EGFR-WT is 10 to 100 nM; at BTK [3] it was below 10 nM.
As for `Cc1cnc(Nc2ccccc2)nc1Nc1cccc(NC(=O)/C=C/CN(C)C)c1` [Compound I-38, (E)-4-(dimethylamino)-N-(3-(5-methyl-2-(phenylamino)pyrimidin-4-ylamino)phenyl)but-2-enamide], the IC50 was below 10 nM at EGFR-T790M/L858R; 10 to 100 nM against EGFR-WT; 10 to 100 nM on BTK [2]; below 10 nM on BTK [3]; 10 to 100 nM on ITK; below 10 nM at BMX. The “BTK Inhibition Type” value at BTK [4] is on record as “reversible”.
The EC50 is the concentration giving half of the maximal effect. For the compound `C=CC(=O)N1CCOc2ccc(Nc3nc(Nc4ccc(OC)nc4)ncc3C(C)=O)cc21` [Compound I-170, 1-{6-[5-Acetyl-2-(6-methoxy-pyridin-3-ylamino)-pyrimidin-4-ylamino]-2,3-dihydro-benzo[1,4]oxazin-4-yl}-propenone], the figures for the IC50 at BTK [2], on BTK [3] and at ITK were 10 to 100 nM, below 10 nM and below 10 nM, respectively. Also, the EC50 in the test on DOHH2 was 1 to 10 µM.
